Literature values in patent US20260174914A1, “METHOD OF TREATING PSMA-EXPRESSING CANCERS” (ENDOCYTE, INC., priority 2020, published 2026).

How the values were obtained:
[1] = tested on: rodent TGF-β
[2] = tested on: cynomolgus monkey TGF-β

## XOMA 089: fully human monoclonal antibody that specifically binds and neutralizes TGF-beta 1 and 2 ligands
[1]
  cross-reactivity with rodent TGF-β: cross-reacts
[2]
  cross-reactivity with cynomolgus monkey TGF-β: cross-reacts
